Experimental data reported in US20250163069A1, “HETEROCYCLIC DERIVATIVE, AND PHARMACEUTICAL COMPOSITION AND APPLICATION THEREOF” (priority 2022, published 2025).
Like-named read-outs stand apart in the source and are kept apart here.

Assays:
HCMV = test: In vitro anti-HCMV activity, GFP reporter virus in MRC5 cells; format: cell-based, Human Cytomegalovirus
Protocol: (§1) Experimental method for in vitro biological activity study: The HCMV virus used in this experiment contains a reporter gene GFP. The inhibitory activity of the compounds against HCMV was detected by detecting the expression of GFP, and the cytotoxicity was also determined; the compounds were tested at 8 concentrations, with 3-fold gradient dilution, and double wells. MRC5 cells were seeded in microtiter plates at a certain density and cultured overnight at 37° C. in 5% CO2. The compounds and viruses were added the next day. […] The final concentration of DMSO in the cell culture medium was 0.5%, the cells were cultured at 37° C. in 5% CO2 for 7 days, the fluorescence value of each well was detected using Acumen, and the original data were used to calculate the antiviral activity of the compounds. The cytotoxicity experiment was the same as the antiviral experiment, but without viral infection; CCK-8 reagent was used to detect cell viability, and the original data were used to calculate the cytotoxicity of the compounds. Software GraphPad Prism was used to analyze the dose-response curves of the compounds and calculate the EC50 and CC50 values (see Table 1 for the results).

in vitro = format: cell-based; settings: human
Protocol: as §1, with “compounds.” for “compounds. Software GraphPad Prism was used to analyze the dose-response curves of the compounds and calculate the EC50 and CC50 values (see Table 1 for the results).”

[1] = tested on: human hepatocyte suspension; test: Hepatocyte metabolic stability test; format: in vitro ADME; settings: for k: Human hepatocytes 1.0 × 10^6 cells/mL, tested compounds 1 μM, positive control 3 μM
Protocol: (§2) Test method: The compounds to be tested will be co-incubated with human hepatocyte suspension at a concentration of 1 μM. At different time points, ice acetonitrile containing internal standard was added to the system to terminate the reaction, after vortexing and centrifugation, the supernatant was taken, and the test compounds in the supernatant were analyzed by LC-MS/MS method. The in vitro intrinsic clearance rate was calculated according to the clearance rate constant of the tested compounds in the incubation system. 7-ethoxycoumarin and 7-hydroxycoumarin were used as positive controls, and the blank culture medium incubation group without hepatocytes was used as negative control.
(§3) Data analysis: The ratio of the peak areas of the analyte/internal standard (Aanalyte/AIS) was obtained by the instrument, and the remaining percentage (% Control) was calculated from the ratio of Aanalyste/AIS in the sample at non-zero time point to that at the zero time point. Ln (% Control) was plotted against incubation time and linearly fitted. The clearance constant (k, min^−1), clearance half-life (T1/2, min), and in vitro intrinsic clearance rate (CLint, hepatocyte, μL/min/10^6 cells) of the tested compounds were calculated using the following equation.
(§4) CLint,hepatic (mL/min/kg) refers to the inherent clearance rate of liver in vivo.

[2] = Hepatocyte metabolic stability test; format: in vitro ADME, Human; settings: for half-life at 1 μM / hepatocyte CLint at 1 μM: tested compounds 1 μM; for CLint scaled at 1 μM: Human, scaled with 120 × 10^6 cells/g liver and 21 g liver/kg, read-out: CLint, hepatic
Protocol: as §2, §3, §4

MRC5 cells = test: in vitro; format: cell-based; settings: human, 7 days
Protocol: as §1, with “compounds.” for “compounds. Software GraphPad Prism was used to analyze the dose-response curves of the compounds and calculate the EC50 and CC50 values (see Table 1 for the results).”

CMV virus = settings: after 28 days of treatment; cited from earlier work
[3] = cited from earlier work
[4] = Human betaherpesvirus 5, 168 h, HCMV with GFP reporter, MRC5 cells, 7 days, read-out: EC50
[5] = Human betaherpesvirus 5, MRC5, Table 1, read-out: activity in inhibiting HCMV
[6] = hepatocyte suspension, Human hepatocytes 1.0 × 10^6 cells/mL, positive control 3 μM
[7] = Human hepatocytes 1.0 × 10^6 cells/mL, positive control 3 μM

Structure (SMILES) | CC50 at 7 days (in vitro) [nM] | EC50 (HCMV; [4]) [nM] | EC50 (HCMV; [5]) [nM] | further results
COc1cccc(N2CCN(C3=Nc4c(F)cccc4[C@H](CC(=O)O)N3c3cc(C(F)(F)F)ccc3OC)CC2)c1 (racemic) [Letermovir (racemic), letermovir (racemic), reference compound] | – | – | – | EC50 (HCMV; HCMV with GFP reporter, MRC5 cells, 7 days, read-out: EC50): 3.92 nM
COc1cccc(N2CCN(C3=Nc4c(F)cccc4C(CC(=O)OCc4oc(=O)oc4C)N3c3cc(C(F)(F)F)ccc3OC)C[C@H]2C)c1 (single isomer, unassigned) [Compound I-41] | 39300 | 0.15 | < 1 | –
CCOc1ccc2ccc(=O)oc2c1 [7-ethoxycoumarin] | – | – | – | k [1]: 0.0348 min⁻¹; half-life at 1 μM [2, 6]: 0.332 h; hepatocyte CLint at 1 μM [2, 6]: 34.8 µL/min/1e6 cells; CLint scaled at 1 μM ([2]; hepatocyte suspension): 87.7 mL/min/kg
O=c1ccc2ccc(O)cc2o1 [7-hydroxycoumarin] | – | – | – | k [1]: 0.0401 min⁻¹; half-life [2, 7]: 0.288 h; hepatocyte CLint at 1 μM [2, 7]: 40.1 µL/min/1e6 cells; CLint scaled at 1 μM ([2]; hepatocytes): 101 mL/min/kg
COC(=O)OCOC(=O)C[C@H]1c2cccc(F)c2N=C(N2CCN(c3cccc(OC)c3)CC2)N1c1cc(C(F)(F)F)ccc1OC [Compound I-5] | > 50000 | 2.62 | – | –
COc1cccc(N2CCN(C3=Nc4c(F)cccc4[C@H](CC(=O)OCOC(C)=O)N3c3cc(C(F)(F)F)ccc3OC)CC2)c1 [Compound I-8] | > 50000 | 1.47 | – | –
COc1cccc(N2CCN(C3=Nc4c(F)cccc4[C@H](CC(=O)OCOC(=O)C(C)(C)C)N3c3cc(C(F)(F)F)ccc3OC)CC2)c1 [Compound I-13] | > 50000 | 2.76 | – | –
COc1cccc(N2CCN(C3=Nc4c(F)cccc4[C@H](CC(=O)OCc4oc(=O)oc4C)N3c3cc(C(F)(F)F)ccc3OC)CC2)c1 [Compound I-17] | – | 1.52 | – | CC50 (MRC5 cells): 43500 nM
COc1cccc(N2CC3CCC(C2)N3C2=Nc3c(F)cccc3C(CC(=O)O)N2c2cc(C(F)(F)F)ccc2OC)c1 (stereo not shown) [Compound I-19] | 23800 | 2.81 | – | –
COc1cccc(N2CCN(C3=Nc4c(F)cccc4C(CC(=O)O)N3c3cc(C(F)(F)F)ccc3OC)C[C@H]2C)c1 (stereo partly shown) [Compound I-23] | > 50000 | 0.28 | < 1 | –
COc1cc(N2CCN(C3=Nc4c(F)cccc4C(CC(=O)O)N3c3cc(C(F)(F)F)ccc3OC)C[C@H]2C)ccn1 (stereo partly shown) [Compound I-24] | > 50000 | 0.46 | < 1 | –
COc1cccc(N2CCN(C3=Nc4c(F)cccc4[C@H](CC(=O)O)N3c3cc(C(F)(F)F)ccc3OC)C[C@H]2C)c1 [Compound I-25] | > 50000 | 0.17 | < 1 | k [1]: 0.000154 min⁻¹; metabolic stability of human hepatocytes compared with letermovir ([1]; human hepatocytes): better metabolic stability; half-life at 1 μM [2, 6]: 74.9 h; hepatocyte CLint at 1 μM [2, 6]: 0.154 µL/min/1e6 cells; CLint scaled at 1 μM ([2]; hepatocyte suspension): 0.388 mL/min/kg
COc1cc(N2CCN(C3=Nc4c(F)cccc4[C@H](CC(=O)O)N3c3cc(C(F)(F)F)ccc3OC)C[C@H]2C)ccn1 [Compound I-26] | > 50000 | 0.26 | < 1 | –
COc1cccc(N2CCN(C3=Nc4c(F)cccc4[C@H](CC(=O)OCOC(C)=O)N3c3cc(C(F)(F)F)ccc3OC)C[C@H]2C)c1 [Compound I-33] | > 50000 | 0.06 | < 1 | –
COc1cc(N2CCN(C3=Nc4c(F)cccc4C(CC(=O)OCOC(C)=O)N3c3cc(C(F)(F)F)ccc3OC)CC2C)ccn1 (stereo not shown) [Compound I-49] | > 50000 | 0.46 | < 1 | –
COc1cc(N2CCN(C3=Nc4c(F)cccc4[C@H](CC(=O)OCOC(C)=O)N3c3cc(C(F)(F)F)ccc3OC)C[C@H]2C)ccn1 [Compound I-53] | > 50000 | 0.32 | < 1 | –
COc1cccc(N2CCN(C3=Nc4c(F)cccc4[C@H](CC(=O)O)N3c3cc(C(F)(F)F)ccc3OC)CC2)c1 [Letermovir, letermovir] | – | – | – | CMV virus detection in the patient (CMV virus): no CMV virus was detected; k [1]: 0.0022 min⁻¹; half-life at 1 μM [2, 6]: 5.27 h; hepatocyte CLint at 1 μM [2, 6]: 2.2 µL/min/1e6 cells; CLint scaled at 1 μM ([2]; hepatocyte suspension): 5.53 mL/min/kg; bioavailability ([3]; hematopoietic cell transplant (HCT) recipients, letermovir alone): about 37%; bioavailability ([3]; with cyclosporin): 85%
